Data: patent US10925876B2, “Methods for using triazolo-pyrazinyl soluble guanylate cyclase activators in fibrotic disorders” (Merck Sharp & Dohme Corp., priority 2016, dated 2021)

Assays:
sGC α1/β1 heterodimer = biological target: T1, sGC α1/β1 heterodimer (Homo sapiens, UniProt Q02108+Q02153); assay: Cell-Based sGC Functional Assay (CASA Assay), cGMP generation in CHO-K1/sGC cells;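 further: reference Compound A is a published heme-dependent sGC activator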; conditions: maximum cGMP production of Compound A set to 100% activation, read-out: % Act. (percent activation relative to Compound A)
T1 construct: expressed in transfected cells
T1 sequence (Q02108 1-690): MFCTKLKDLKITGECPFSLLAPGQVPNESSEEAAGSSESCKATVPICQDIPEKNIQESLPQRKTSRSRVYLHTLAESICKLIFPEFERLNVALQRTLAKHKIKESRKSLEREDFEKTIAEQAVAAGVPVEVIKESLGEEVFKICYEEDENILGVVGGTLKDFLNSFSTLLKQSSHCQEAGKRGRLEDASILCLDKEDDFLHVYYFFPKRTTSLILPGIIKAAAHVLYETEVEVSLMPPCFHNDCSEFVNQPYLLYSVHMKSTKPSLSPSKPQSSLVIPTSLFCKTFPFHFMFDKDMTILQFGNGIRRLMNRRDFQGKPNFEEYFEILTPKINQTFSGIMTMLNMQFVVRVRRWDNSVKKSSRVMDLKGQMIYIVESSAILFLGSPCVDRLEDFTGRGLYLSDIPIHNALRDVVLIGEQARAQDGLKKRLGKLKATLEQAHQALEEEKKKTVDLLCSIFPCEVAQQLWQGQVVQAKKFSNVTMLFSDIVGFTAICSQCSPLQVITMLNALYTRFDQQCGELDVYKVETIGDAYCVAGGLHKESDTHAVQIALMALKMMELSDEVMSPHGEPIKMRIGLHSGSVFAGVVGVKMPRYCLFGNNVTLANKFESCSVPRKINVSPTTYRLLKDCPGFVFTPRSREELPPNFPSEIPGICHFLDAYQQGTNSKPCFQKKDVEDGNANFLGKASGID
T1 sequence (Q02153 1-619): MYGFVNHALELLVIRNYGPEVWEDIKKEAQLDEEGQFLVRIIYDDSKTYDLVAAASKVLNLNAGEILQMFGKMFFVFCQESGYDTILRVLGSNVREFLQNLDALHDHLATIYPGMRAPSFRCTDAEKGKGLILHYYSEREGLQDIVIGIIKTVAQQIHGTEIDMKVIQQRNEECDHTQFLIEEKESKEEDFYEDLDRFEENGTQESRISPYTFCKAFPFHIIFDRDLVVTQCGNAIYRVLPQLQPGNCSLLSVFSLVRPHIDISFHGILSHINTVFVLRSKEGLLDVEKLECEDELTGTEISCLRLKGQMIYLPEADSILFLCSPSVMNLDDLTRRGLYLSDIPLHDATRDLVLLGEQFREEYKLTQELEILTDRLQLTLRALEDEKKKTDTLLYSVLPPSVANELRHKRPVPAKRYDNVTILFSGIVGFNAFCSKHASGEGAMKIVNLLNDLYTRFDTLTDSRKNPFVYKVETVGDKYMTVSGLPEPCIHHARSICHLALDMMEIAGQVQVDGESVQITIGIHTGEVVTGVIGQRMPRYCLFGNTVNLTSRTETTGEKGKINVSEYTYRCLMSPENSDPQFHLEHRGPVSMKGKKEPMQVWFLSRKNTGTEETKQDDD
How it was run: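 Intracellular cGMP quantified by HTRF competition after 1 h, 37 °C compound exposure, with or without 1 μM DETA-NO, in stable CHO-K1/sGC α1/β1 cells (4×10^5/mL; buffer with 0.5 mM IBMX, 5 mM MgCl2, 10 mM HEPES, 0.05% BSA; 2.5% DMSO). Activation normalized to reference Compound A maximum; 4P fit.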

[1] = tested on: Spontaneously hypertensive rats (SHR); assay: Acute Efficacy in Spontaneously Hypertensive Rats (SHR), telemetry blood pressure; type: in vivo, rat; conditions: single oral gavage
How it was run: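 Male SHR fitted with aortic telemetry transmitters and recovered 14 days; conscious blood pressure sampled 30 s every 10 min. Single oral gavage dose (vehicle 10% transcutol/20% Cremophor/70% water); hourly SBP change versus prior-day vehicle baseline, reported as maximum peak decrease.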

| Emax (sGC α1/β1 heterodimer) | Compound | Maximum peak decrease of systolic blood pressure (SBP) in SHR, Cat. ([1]; P.O. 1 mpk) | Maximum peak decrease of systolic blood pressure (SBP) in SHR, Cat. ([1]; P.O. 3 mpk) | Maximum peak decrease of systolic blood pressure (SBP) in SHR, Cat. ([1]; P.O. 0.3 mpk) |
| --- | --- | --- | --- | --- |
| 154% | CC1(c2ccc(F)c(F)c2)C(=O)Nc2nc(-c3cn4ncnc4c(CCCC(F)(F)F)n3)nc(O)c21 (stereo not shown) [Example 146B, 5-(3,4-difluorophenyl)-4-hydroxy-5-methyl-2-(8-(4,4,4-trifluorobutyl)-[1,2,4]triazolo[1,5-a]pyrazin-6-yl)-5H-pyrrolo[2,3-d]pyrimidin-6(7H)-one] | – | – | B (Category B=SBP in SHRs 20-40 mmHg) |
| 120% | C[C@@]1(c2ccc(F)cc2)C(=O)Nc2nc(-c3cn4ncnc4c(CCC(F)(F)F)n3)nc(O)c21 [Example 151A, (S)-5-(4-fluroophenyl)-4-hydroxy-5-methyl-2-(8-(3,3,3-trifluoropropyl)-[1,2,4]triazolo[1,5-a]pyrazin-6-yl)-5,7-dihydro-6H-pyrrolo[2,3-d]pyrimidin-6-one] | – | B (Category B=SBP in SHRs 20-40 mmHg) | – |
| 70% | CC1(c2ccc(Cl)cc2)C(=O)Nc2nc(-c3cn4ncnc4c(CCC(F)(F)F)n3)nc(O)c21 (stereo not shown) [Example 152A, 5-(4-chlorophenyl)-4-hydroxy-5-methyl-2-(8-(3,3,3-trifluoropropyl)-[1,2,4]triazolo[1,5-a]pyrazin-6-yl)-5H-pyrrolo[2,3-d]pyrimidin-6(7H)-one] | – | B (Category B=SBP in SHRs 20-40 mmHg) | – |
| 100% | CCCCc1nc(-c2nc(O)c3c(n2)NC(=O)[C@@]3(C)c2ccc(F)cc2)cn2ncnc12 [Example 154A, (S)-2-(8-butyl-[1,2,4]triazolo[1,5-a]pyrazin-6-yl)-5-(4-fluorophenyl)-4-hydroxy-5-methyl-5,7-dihydro-6H-pyrrolo[2,3-d]pyrimidin-6-one] | – | – | B (Category B=SBP in SHRs 20-40 mmHg) |
| 159% | CCCCc1nc(-c2nc(O)c3c(n2)NC(=O)C3(C)c2ccc(F)cn2)cn2ncnc12 (stereo not shown) [Example 155B, 2-(8-butyl-[1,2,4]triazolo[1,5-a]pyrazin-6-yl)-5-(5-fluoropyridin-2-yl)-4-hydroxy-5-methyl-5H-pyrrolo[2,3-d]pyrimidin-6(7H)-one] | B (Category B=SBP in SHRs 20-40 mmHg) | – | – |
| 102% | CCCCc1nc(-c2nc(O)c3c(n2)NC(=O)C3(C)c2ccc(Cl)c(F)c2)cn2ncnc12 (stereo not shown) [Example 156B, 2-(8-butyl-[1,2,4]triazolo[1,5-a]pyrazin-6-yl)-5-(4-chloro-3-fluorophenyl)-4-hydroxy-5-methyl-5H-pyrrolo[2,3-d]pyrimidin-6(7H)-one] | – | – | C (Category C=SBP in SHRs >40 mmHg) |
| 232% | CCCCc1nc(-c2nc(O)c3c(n2)NC(=O)C3(C)c2ccc(F)c(F)c2)cn2ncnc12 (stereo not shown) [Example 158B, 2-(8-butyl-[1,2,4]triazolo[1,5-a]pyrazin-6-yl)-5-(3,4-difluorophenyl)-4-hydroxy-5-methyl-5H-pyrrolo[2,3-d]pyrimidin-6(7H)-one] | – | – | C (Category C=SBP in SHRs >40 mmHg) |
| 96% | CCCCc1nc(-c2nc(O)c3c(n2)NC(=O)C3(C)c2ccc(Cl)cn2)cn2ncnc12 (stereo not shown) [Example 160A, 2-(8-butyl-[1,2,4]triazolo[1,5-a]pyrazin-6-yl)-5-(5-chloropyridin-2-yl)-4-hydroxy-5-methyl-5H-pyrrolo[2,3-d]pyrimidin-6(7H)-one] | – | – | B (Category B=SBP in SHRs 20-40 mmHg) |

The remaining lines, values behind:

| Compound | Emax (sGC α1/β1 heterodimer) | Maximum peak decrease of systolic blood pressure (SBP) in SHR, Cat. ([1]; P.O. 1 mpk) | Maximum peak decrease of systolic blood pressure (SBP) in SHR, Cat. ([1]; P.O. 3 mpk) | Maximum peak decrease of systolic blood pressure (SBP) in SHR, Cat. ([1]; P.O. 0.3 mpk) |
| --- | --- | --- | --- | --- |
| Cc1nc2c(CCC(F)(F)C(F)(F)F)nc(-c3nc(O)c4c(n3)NC(=O)C4(C)c3ccc(Cl)c(F)c3)cn2n1 (stereo not shown) [Example 132B, 5-(4-chloro-3-fluorophenyl)-4-hydroxy-5-methyl-2-(2-methyl-8-(3,3,4,4,4-pentafluorobutyl)-[1,2,4]triazolo[1,5-a]pyrazin-6-yl)-5H-pyrrolo[2,3-d]pyrimidin-6(7H)-one] | 119% | A (Category A=SBP in SHRs <20 mmHg) | – | – |
| CC1(c2ccc(Cl)cn2)C(=O)Nc2nc(-c3cn4ncnc4c(CCCC(F)(F)F)n3)nc(O)c21 (stereo not shown) [Example 134A, 5-(5-chloropyridin-2-yl)-4-hydroxy-5-methyl-2-(8-(4,4,4-trifluorobutyl)-[1,2,4]triazolo[1,5-a]pyrazin-6-yl)-5H-pyrrolo[2,3-d]pyrimidin-6(7H)-one] | 134% | B (Category B=SBP in SHRs 20-40 mmHg) | – | – |
| C[C@@]1(c2ccc(F)cc2)C(=O)Nc2nc(-c3cn4ncnc4c(CCCC(F)(F)F)n3)nc(O)c21 [Example 135A, 5-(4-fluorophenyl)-4-hydroxy-5-methyl-2-(8-(4,4,4-trifluorobutyl)-[1,2,4]triazolo[1,5-a]pyrazin-6-yl)-5,7-dihydro-6H-pyrrolo[2,3-d]pyrimidin-6-one] | 108% | B (Category B=SBP in SHRs 20-40 mmHg) | – | – |
| CC1(c2ccc(F)cn2)C(=O)Nc2nc(-c3cn4ncnc4c(CCCC(F)(F)F)n3)nc(O)c21 (stereo not shown) [Example 136B, 5-(5-fluoropyridin-2-yl)-4-hydroxy-5-methyl-2-(8-(4,4,4-trifluorobutyl)-[1,2,4]triazolo[1,5-a]pyrazin-6-yl)-5H-pyrrolo[2,3-d]pyrimidin-6(7H)-one] | 69% | – | B (Category B=SBP in SHRs 20-40 mmHg) | – |
| CC1(c2ccc(Cl)c(F)c2)C(=O)Nc2nc(-c3cn4ncnc4c(CCCC(F)(F)F)n3)nc(O)c21 (stereo not shown) [Example 138B, 5-(4-chloro-3-fluorophenyl)-4-hydroxy-5-methyl-2-(8-(4,4,4-trifluorobutyl)-[1,2,4]triazolo[1,5-a]pyrazin-6-yl)-5H-pyrrolo[2,3-d]pyrimidin-6(7H)-one] | 164% | C (Category C=SBP in SHRs >40 mmHg) | – | – |
| O=C1Nc2nc(-c3cn4ncnc4c(CCCC(F)(F)F)n3)nc(O)c2C1(c1ccc(Cl)cc1)C1CC1 (stereo not shown) [Example 140B, 5-(4-chlorophenyl)-5-cyclopropyl-4-hydroxy-2-(8-(4,4,4-trifluorobutyl)-[1,2,4]triazolo[1,5-a]pyrazin-6-yl)-5H-pyrrolo[2,3-d]pyrimidin-6(7H)-one] | 150% | A (Category A=SBP in SHRs <20 mmHg) | – | – |
| O=C1Nc2nc(-c3cn4ncnc4c(CCCC(F)(F)F)n3)nc(O)c2C1(c1ccc(F)c(F)c1)C1CC1 (stereo not shown) [Example 141A, 5-cyclopropyl-5-(3,4-difluorophenyl)-4-hydroxy-2-(8-(4,4,4-trifluorobutyl)-[1,2,4]triazolo[1,5-a]pyrazin-6-yl)-5H-pyrrolo[2,3-d]pyrimidin-6(7H)-one] | 133% | B (Category B=SBP in SHRs 20-40 mmHg) | – | – |
| CC1(c2ccc(Cl)cc2)C(=O)Nc2nc(-c3cn4ncnc4c(CCCC(F)(F)F)n3)nc(O)c21 (stereo not shown) [Example 142A, 5-(4-chlorophenyl)-4-hydroxy-5-methyl-2-(8-(4,4,4-trifluorobutyl)-[1,2,4]triazolo[1,5-a]pyrazin-6-yl)-5H-pyrrolo[2,3-d]pyrimidin-6(7H)-one] | 137% | – | – | B (Category B=SBP in SHRs 20-40 mmHg) |
| CC1(c2ccccc2)C(=O)Nc2nc(-c3cn4ncnc4c(CCCC(F)(F)F)n3)nc(O)c21 (stereo not shown) [Example 143B, 4-hydroxy-5-methyl-5-phenyl-2-(8-(4,4,4-trifluorobutyl)-[1,2,4]triazolo[1,5-a]pyrazin-6-yl)-5H-pyrrolo[2,3-d]pyrimidin-6(7H)-one] | 114% | B (Category B=SBP in SHRs 20-40 mmHg) | – | – |
